The values that follow come from paper PMC9316761, “Thiosemicarbazide-Substituted Coumarins as Selective Inhibitors of the Tumor Associated Human Carbonic Anhydrases IX and XII” (Molecules, 2022).

The target in data set [1] is T1, hCA II (Homo sapiens, UniProt P00918).
T1 construct: made in house
Nature of the data set: stopped flow CO2 hydrase assay, hCA II. The data set is classed as biochemical. As to conditions: mean from 3 assays, errors ±5–10%; 6 h preincubation.

The target of data set [2] is T2, hCA XII (Homo sapiens, UniProt O43570).
T2 construct: made in house
Nature of the data set: stopped flow CO2 hydrase assay, hCA XII. The data set is classed as biochemical. As to conditions: for fold more effective on hCA XII than 6-substituted counterpart: 7-substituted versus 6-substituted regioisomer (20a, 21a).

The target in data set [3] is T3, hCA I (Homo sapiens, UniProt P00915).
T3 construct: made in house
Nature of the data set: stopped flow CO2 hydrase assay, hCA I. As to conditions: mean from 3 assays, errors ±5–10%; 6 h preincubation. In kind it is biochemical.

Data set [4] deals with T4, hCA IX (Homo sapiens, UniProt Q16790).
T4 construct: made in house
Nature of the data set: stopped flow CO2 hydrase assay, hCA IX. The settings on record: for Ki: mean from 3 assays, errors ±5–10%, 6 h preincubation; for fold loss of hCA IX inhibition potency relative to 14a: Ki ratio versus 14a; for fold increase of hCA IX Ki relative to the 4-iodo derivative 18a: Ki ratio versus 18a; for fold more potent on hCA IX than 6-substituted counterpart: 7-substituted versus 6-substituted regioisomer (20a, 22a). The data set is classed as biochemical.

SMILES strings stand for the structures.

T3 sequence (P00915 whole entry): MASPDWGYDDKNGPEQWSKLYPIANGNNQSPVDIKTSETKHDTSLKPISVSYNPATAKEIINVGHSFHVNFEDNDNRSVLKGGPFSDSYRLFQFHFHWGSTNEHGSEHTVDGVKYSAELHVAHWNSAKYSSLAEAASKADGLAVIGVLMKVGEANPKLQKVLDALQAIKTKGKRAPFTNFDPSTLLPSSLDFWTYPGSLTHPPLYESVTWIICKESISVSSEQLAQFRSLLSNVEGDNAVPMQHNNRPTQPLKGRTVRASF
T2 sequence (O43570 25-354): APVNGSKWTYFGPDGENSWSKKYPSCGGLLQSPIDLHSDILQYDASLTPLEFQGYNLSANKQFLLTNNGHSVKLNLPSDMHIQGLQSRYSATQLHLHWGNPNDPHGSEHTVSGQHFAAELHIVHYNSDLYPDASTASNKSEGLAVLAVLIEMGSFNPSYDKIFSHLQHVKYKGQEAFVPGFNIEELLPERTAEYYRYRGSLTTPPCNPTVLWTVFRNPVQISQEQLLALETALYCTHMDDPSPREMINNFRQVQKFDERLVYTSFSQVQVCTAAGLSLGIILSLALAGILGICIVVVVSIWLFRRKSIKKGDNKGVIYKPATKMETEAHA

A word on the Ki: it is the equilibrium dissociation constant of an inhibitor or competing ligand from its target. For orientation: melting point means the temperature, or range, at which the solid turns liquid. In the case of `O=C(COc1ccc2oc(=O)ccc2c1)NNC(=S)Nc1ccccc1` [Compound 14a, N-Phenyl-2-(2-((2-oxo-2H-chromen-6-yl)oxy)acetyl)hydrazine-1-carbothioamide], the melting point was in the range of 173 to 175 °C. In data set [1], this compound showed a Ki of over 10000 nM. The same compound came in with a Ki in data set [2] of 739 nM. Moreover, the Ki in data set [3] was over 10000 nM. Further, in data set [4] (Ki hCA XII / Ki hCA IX), the “fold more potent on hCA IX than on hCA XII” value is listed as 84 fold. For the same compound, affinity in data set [4] was put at a Ki of 8.8 nM.

The compound `O=C(COc1ccc2ccc(=O)oc2c1)NNC(=S)Nc1ccccc1` [Compound 14b, N-Phenyl-2-(2-((2-oxo-2H-chromen-7-yl)oxy)acetyl)hydrazine-1-carbothioamide] yielded a melting point of 155 to 156 °C. Besides, in data set [1], the Ki is over 10000 nM. The compound further displayed a Ki in data set [2] of 743 nM. Moreover, the Ki in data set [3] is over 10000 nM. Further, in data set [4], the “fold loss of hCA IX inhibition potency relative to 14a” value is listed as 5.2 fold and the Ki worked out at 46 nM.

For `Cc1ccc(NC(=S)NNC(=O)COc2ccc3oc(=O)ccc3c2)cc1` [Compound 15a, N-(p-Tolyl)-2-(2-((2-oxo-2H-chromen-6-yl)oxy)acetyl)hydrazine-1-carbothioamide], the melting point was 167 to 169 °C. For the same compound, the Ki in data set [1] was over 10000 nM. The compound further returned a Ki in data set [2] of 709 nM. The compound further gave a Ki in data set [3] of over 10000 nM. For the same compound, in data set [4], the “fold loss of hCA IX inhibition potency relative to 14a” value came out at 26.6 fold and the affinity corresponds to a Ki of 234 nM.

Turning to `Cc1ccc(NC(=S)NNC(=O)COc2ccc3ccc(=O)oc3c2)cc1` [Compound 15b, N-(p-Tolyl)-2-(2-((2-oxo-2H-chromen-7-yl)oxy)acetyl)hydrazine-1-carbothioamide], the melting point is 147 to 149 °C (dec.). Further, the Ki in data set [1] was over 10000 nM. This compound also yielded a Ki in data set [2] of 684 nM. For the same compound, the Ki in data set [3] is over 10000 nM. Moreover, in data set [4] (Ki ratio versus 14b), the “fold increase of hCA IX Ki relative to 14b” value came to 1.7 fold. In data set [4], this compound returned a Ki of 78 nM.

The compound `O=C(COc1ccc2oc(=O)ccc2c1)NNC(=S)Nc1ccc(Cl)cc1` [Compound 16a, N-(4-Chlorophenyl)-2-(2-((2-oxo-2H-chromen-6-yl)oxy)acetyl)hydrazine-1-carbothioamide] yielded a melting point of 163 to 165 °C. Besides, in data set [1], the Ki was over 10000 nM. For the same compound, the affinity in data set [2], expressed as Ki, was 608 nM. In data set [3], this compound had an inhibitory constant (Ki) of over 10000 nM. For the same compound, the affinity in data set [4], expressed as Ki, was 48 nM.

Regarding `O=C(COc1ccc2ccc(=O)oc2c1)NNC(=S)Nc1ccc(Cl)cc1` [Compound 16b, N-(4-Chlorophenyl)-2-(2-((2-oxo-2H-chromen-7-yl)oxy)acetyl)hydrazine-1-carbothioamide], the melting point was in the range of 202 to 203 °C. Moreover, the Ki in data set [1] is over 10000 nM. In data set [2], this compound showed a Ki of 866 nM. Besides, the Ki in data set [3] is over 10000 nM. In addition, the Ki in data set [4] is 55 nM.

Compound `O=C(COc1ccc2oc(=O)ccc2c1)NNC(=S)Nc1ccc(F)cc1` [Compound 17a, N-(4-Fluorophenyl)-2-(2-((2-oxo-2H-chromen-6-yl)oxy)acetyl)hydrazine-1-carbothioamide] yielded a melting point of 181 to 183 °C. In data set [1], this compound returned a Ki of over 10000 nM. Besides, the Ki in data set [2] is 494 nM. The compound also displayed a Ki in data set [3] of over 10000 nM. The Ki in data set [4] was determined as 39 nM.

Turning to `O=C(COc1ccc2ccc(=O)oc2c1)NNC(=S)Nc1ccc(F)cc1` [Compound 17b, N-(4-Fluorophenyl)-2-(2-((2-oxo-2H-chromen-7-yl)oxy)acetyl)hydrazine-1-carbothioamide], the melting point is 119 to 121 °C (dec.). The Ki in data set [1] was over 10000 nM. In data set [2], this compound displayed a Ki of 745 nM. Moreover, the Ki in data set [3] was over 10000 nM. In data set [4], the Ki was 64 nM.

For `O=C(COc1ccc2oc(=O)ccc2c1)NNC(=S)Nc1ccc(I)cc1` [Compound 18a, N-(4-Iodophenyl)-2-(2-((2-oxo-2H-chromen-6-yl)oxy)acetyl)hydrazine-1-carbothioamide], the melting point fell in the range of 160 to 162 °C. This compound showed a Ki in data set [1] of over 10000 nM. The same compound had an inhibition constant Ki in data set [2] of 8.4 nM. Also, the Ki in data set [3] is over 10000 nM. This compound also came in with a Ki in data set [4] of 9.6 nM.

Consider `O=C(COc1ccc2ccc(=O)oc2c1)NNC(=S)Nc1ccc(I)cc1` [Compound 18b, N-(4-Iodophenyl)-2-(2-((2-oxo-2H-chromen-7-yl)oxy)acetyl)hydrazine-1-carbothioamide], for which the melting point fell in the range of 164 to 166 °C. The Ki in data set [1] is over 10000 nM. For the same compound, affinity in data set [2] was put at a Ki of 7.5 nM. The compound further gave a Ki in data set [3] of over 10000 nM. The same compound registered a Ki in data set [4] of 721 nM.

Take `O=C(COc1ccc2oc(=O)ccc2c1)NNC(=S)Nc1cccc(I)c1` [Compound 19a, N-(3-Iodophenyl)-2-(2-((2-oxo-2H-chromen-6-yl)oxy)acetyl)hydrazine-1-carbothioamide]: the melting point was 144 to 146 °C. Also, the inhibition constant (Ki) in data set [1] was over 10000 nM. In data set [2], this compound showed a Ki of 79 nM. Moreover, the Ki in data set [3] was over 10000 nM. Further, affinity in data set [4] was put at a Ki of 9.6 nM.

On to `O=C(COc1ccc2ccc(=O)oc2c1)NNC(=S)Nc1cccc(I)c1` [Compound 19b, N-(3-Iodophenyl)-2-(2-((2-oxo-2H-chromen-7-yl)oxy)acetyl)hydrazine-1-carbothioamide], for which the melting point was 168 to 169 °C. In data set [1], this compound registered an inhibition constant (Ki) of over 10000 nM. For the same compound, the Ki in data set [2] was 573 nM. The same compound showed a Ki in data set [3] of over 10000 nM. For the same compound, the Ki in data set [4] worked out at 9.4 nM.

Consider `O=C(COc1ccc2oc(=O)ccc2c1)NNC(=S)Nc1ccc(C(F)(F)F)cc1` [Compound 20a, N-(4-(Trifluoromethyl)phenyl)-2-(2-((2-oxo-2H-chromen-6-yl)oxy)acetyl)hydrazine-1-carbothioamide], for which the Ki in data set [1] was over 10000 nM; in data set [2], 306 nM; in data set [3] it was over 10000 nM; in data set [4], 92 nM. Further, the “fold increase of hCA IX Ki relative to the 4-iodo derivative 18a” value in data set [4] stood at 9.6 fold.

As for `O=C(COc1ccc2ccc(=O)oc2c1)NNC(=S)Nc1ccc(C(F)(F)F)cc1` [Compound 20b, N-(4-(Trifluoromethyl)phenyl)-2-(2-((2-oxo-2H-chromen-7-yl)oxy)acetyl)hydrazine-1-carbothioamide], the Ki in data set [1] is over 10000 nM; in data set [2], 56.6 nM; in data set [3] it was over 10000 nM; in data set [4], 70 nM. In data set [2], the “fold more effective on hCA XII than 6-substituted counterpart” value worked out at 5.4 fold. In data set [4], the “fold more potent on hCA IX than 6-substituted counterpart” value turned out to be 1.3 fold.

With `O=C(COc1ccc2oc(=O)ccc2c1)NNC(=S)Nc1cccc([N+](=O)[O-])c1` [Compound 21a, N-(3-Nitrophenyl)-2-(2-((2-oxo-2H-chromen-6-yl)oxy)acetyl)hydrazine-1-carbothioamide], the melting point was in the range of 210 to 212 °C. This compound also came in with a Ki in data set [1] of over 10000 nM. Affinity in data set [2] was put at a Ki of 328 nM. The compound further had a Ki in data set [3] of over 10000 nM. The same compound registered a Ki in data set [4] of 71 nM.

`O=C(COc1ccc2ccc(=O)oc2c1)NNC(=S)Nc1cccc([N+](=O)[O-])c1` [Compound 21b, N-(3-Nitrophenyl)-2-(2-((2-oxo-2H-chromen-7-yl)oxy)acetyl)hydrazine-1-carbothioamide]: the melting point lay in the range of 214 to 215 °C. Also, the Ki in data set [1] is over 10000 nM. Besides, in data set [2], the Ki amounted to 8.6 nM and the “fold more effective on hCA XII than 6-substituted counterpart” value came to 38.2 fold. This compound came in with a Ki in data set [3] of over 10000 nM. In addition, the Ki in data set [4] is 9.1 nM.

The compound `CSc1ccc(NC(=S)NNC(=O)COc2ccc3oc(=O)ccc3c2)cc1` [Compound 22a, N-(4-(Methylthio)phenyl)-2-(2-((2-oxo-2H-chromen-6-yl)oxy)acetyl)hydrazine-1-carbothioamide] gave a melting point of 148 to 150 °C. Moreover, in data set [1], the Ki is over 10000 nM. The Ki in data set [2] turned out to be 4 nM. For the same compound, the “fold less effective on hCA IX than on hCA XII” value in data set [2] (Ki hCA IX / Ki hCA XII) worked out at 14 fold. This compound had a Ki in data set [3] of over 10000 nM. In data set [4], the “fold increase of hCA IX Ki relative to the 4-iodo derivative 18a” value is given as 5.9 fold and the affinity corresponds to a Ki of 57 nM.

Compound `CSc1ccc(NC(=S)NNC(=O)COc2ccc3ccc(=O)oc3c2)cc1` [Compound 22b, N-(4-(Methylthio)phenyl)-2-(2-((2-oxo-2H-chromen-7-yl)oxy)acetyl)hydrazine-1-carbothioamide] yielded a melting point of 163 to 164 °C. Besides, the Ki in data set [1] is over 10000 nM. In data set [2], affinity was put at a Ki of 4.6 nM. In data set [3], this compound had a Ki of over 10000 nM. Moreover, in data set [4], the “fold more potent on hCA IX than 6-substituted counterpart” value is recorded as 1.7 fold and the Ki was 33 nM.

`N#Cc1ccc(NC(=S)NNC(=O)COc2ccc3ccc(=O)oc3c2)cc1` [Compound 23b, N-(4-Cyanophenyl)-2-(2-((2-oxo-2H-chromen-7-yl)oxy)acetyl)hydrazine-1-carbothioamide]: the melting point lay in the range of 224 to 226 °C. The inhibition constant Ki in data set [1] was over 10000 nM. The same compound came in with a Ki in data set [2] of 473 nM. This compound returned a Ki in data set [3] of over 10000 nM. This compound showed a Ki in data set [4] of 437 nM.
